The source of these data is article PMC4957640 (Bioorganic & medicinal chemistry, 2016).

Structures are written as SMILES.

Type in all cases: biochemical
The target in assay [1] is cloned human μ opioid receptor (MOR) (Homo sapiens, UniProt P35372). Nature of the assay: Inhibition of DAMGO-stimulated [35S]GTPγS binding.
In assay [2] the target is cloned human δ opioid receptor (DOR) (Homo sapiens, UniProt P41143). In words: Inhibition of DPDPE-stimulated [35S]GTPγS binding.
Assay [3] addresses cloned human κ opioid receptor (KOR) (Homo sapiens, UniProt P41145). Nature of the assay: Inhibition of U69,593-stimulated [35S]GTPγS binding. The note with it: for δ/κ: ratio of Ke values, selectivity for KOR relative to DOR (fold).

cloned human μ opioid receptor (MOR), sequence (P35372 whole entry): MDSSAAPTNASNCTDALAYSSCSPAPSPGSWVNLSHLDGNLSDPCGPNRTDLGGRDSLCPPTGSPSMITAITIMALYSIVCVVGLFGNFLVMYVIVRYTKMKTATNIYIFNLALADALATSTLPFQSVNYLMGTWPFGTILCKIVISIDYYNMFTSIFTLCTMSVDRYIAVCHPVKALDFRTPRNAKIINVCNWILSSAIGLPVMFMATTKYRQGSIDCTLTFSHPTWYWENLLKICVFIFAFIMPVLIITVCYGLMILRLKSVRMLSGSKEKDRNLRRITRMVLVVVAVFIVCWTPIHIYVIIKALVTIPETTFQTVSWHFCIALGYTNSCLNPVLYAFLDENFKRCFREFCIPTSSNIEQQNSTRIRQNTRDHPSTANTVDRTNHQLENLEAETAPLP
cloned human δ opioid receptor (DOR), sequence (P41143 whole entry): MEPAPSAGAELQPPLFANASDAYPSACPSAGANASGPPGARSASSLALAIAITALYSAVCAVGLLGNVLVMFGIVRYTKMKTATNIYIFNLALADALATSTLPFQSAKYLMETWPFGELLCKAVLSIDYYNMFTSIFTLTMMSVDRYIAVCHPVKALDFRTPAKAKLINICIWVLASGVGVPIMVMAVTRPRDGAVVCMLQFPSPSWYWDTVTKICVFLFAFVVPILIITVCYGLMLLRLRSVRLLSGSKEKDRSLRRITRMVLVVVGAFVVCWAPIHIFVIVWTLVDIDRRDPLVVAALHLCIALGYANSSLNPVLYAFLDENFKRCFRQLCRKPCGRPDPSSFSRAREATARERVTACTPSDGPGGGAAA
cloned human κ opioid receptor (KOR), sequence (P41145 whole entry): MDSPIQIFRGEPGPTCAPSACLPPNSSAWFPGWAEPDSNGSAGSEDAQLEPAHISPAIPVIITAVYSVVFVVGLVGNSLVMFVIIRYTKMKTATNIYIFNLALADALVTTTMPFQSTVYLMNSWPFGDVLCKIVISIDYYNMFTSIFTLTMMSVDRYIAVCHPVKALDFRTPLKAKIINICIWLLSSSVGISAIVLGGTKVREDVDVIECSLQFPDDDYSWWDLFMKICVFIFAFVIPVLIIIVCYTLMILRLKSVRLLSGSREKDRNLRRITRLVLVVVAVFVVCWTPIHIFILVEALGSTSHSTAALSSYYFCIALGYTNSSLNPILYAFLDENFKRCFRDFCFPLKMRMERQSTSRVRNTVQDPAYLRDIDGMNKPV

For `CC(C)[C@@H](CN1CCC(c2ccccn2)CC1)NC(=O)[C@H]1Cc2ccc(O)cc2CN1` [Compound 2, (3R)-7-Hydroxy-N-{(1S)-2-methyl-1-[(4-pyridin-2-ylpiperidin-1-yl)methyl]propyl}-1,2,3,4-tetrahydroisoquinoline-3-carboxamide], the values for the Kb in assay [1], in assay [2] and in assay [3] were 14.5 ± 2.6 nM, 590 ± 130 nM and 0.43 ± 0.12 nM, respectively. Also, the δ/κ in assay [3] is listed as 1,372.
On the same counts, the results for `CC(C)[C@@H](CN1CCC(c2cccnc2)CC1)NC(=O)[C@H]1Cc2ccc(O)cc2CN1` [Compound 3a, (3R)-7-Hydroxy-N-{(1S)-2-methyl-1-[(4-pyridin-3-ylpiperidin-1-yl)methyl]propyl}-1,2,3,4-tetrahydroisoquinoline-3-carboxamide] are 45.4 ± 15 nM, 1140 ± 70 nM, 0.51 ± 0.08 nM and 2,235.
On the same counts, the results for `CC(C)[C@@H](CN1CCC(C)(c2cccnc2)CC1)NC(=O)[C@H]1Cc2ccc(O)cc2CN1` [Compound 3b, (3R)-7-Hydroxy-N-{(1S)-2-methyl-1-[(4-methyl-4-pyridin-3-ylpiperidin-1-yl)methyl]propyl}-1,2,3,4-tetrahydroisoquinoline-3-carboxamide] are 49.2 ± 14 nM, more than 3000 nM, 0.18 ± 0.01 nM and >16,700.
On the same counts, the results for `CC(C)[C@@H](CN1CCC(c2ccncc2)CC1)NC(=O)[C@H]1Cc2ccc(O)cc2CN1` [Compound 4a, (3R)-7-Hydroxy-N-{(1S)-2-methyl-1-[(4-pyridin-4-ylpiperidin-1-yl)methyl]propyl}-1,2,3,4-tetrahydroisoquinoline-3-carboxamide] are 57.1 ± 15 nM, 690 ± 250 nM, 0.51 ± 0.14 nM and 1,353.
For `CC(C)[C@@H](CN1CCC(C)(c2ccncc2)CC1)NC(=O)[C@H]1Cc2ccc(O)cc2CN1` [Compound 4b, (3R)-7-Hydroxy-N-{(1S)-2-methyl-1-[(4-methyl-4-pyridin-4-ylpiperidin-1-yl)methyl]propyl}-1,2,3,4-tetrahydroisoquinoline-3-carboxamide], the Kb in assay [1] is 154 ± 56 nM; in assay [2], 2510 nM; in assay [3] it was 1.75 ± 0.65 nM. Further, the δ/κ in assay [3] was 1,434.
